# In patent US11426365B2, “Compositions comprising thymoquinone and omega-3 fatty acids” (TRINUTRA LTD., priority 2017, dated 2022):
# Test system: NO production in LPS-stimulated RAW 264.7 macrophage cells
# Assay: Inhibition of nitric oxide (NO) production in LPS-stimulated murine macrophages (RAW 264.7), Griess reagent
# Type: cell-based
# Settings: 3 h pre-treatment, then 5 ng/ml LPS overnight; FO 15 μM, DIM 15 μM, BC-concentrated TQ 10 μM; FIG. 3
# Procedure: These two different BC preparations were then tested for their ability to inhibit NO production, in accordance with the method described hereinbelow in Example 4.
# BC-concentrated TQ (obtained from TriNutra. Ness Ziona, Israel), Omega-3 oil (fish oil—FO) and Diindolylmethane (DIM) were tested on a macrophage murine cellular system (RAW 264.7) before stimulation with Lipopolysaccharide (LPS), an endotoxin which induces a strong response from normal animal immune systems.
# Cells were thawed, grown and managed according to standard protocols.
# On Day 0, cells were seeded in 6-well plates at concentrations of 6×10^5. Volume of medium per well was 2 ml. Cells were seeded in triplicates for each treatment and for each control.
# Culture Medium • 10% FCS, 1% Penicillin-Streptomycin Solution, 2% Glutamine 2% were added to DMEM (final volume −500 ml) and filtered. Medium was kept at 2-8° C. until use.
# 10 mg LPS was dissolved in 10 ml sterile water aliquoted and kept at −20° C.
# Before use 1 aliquot was defrosted and diluted in culture media to final concentration of 5 ng/ml.
# MW of Fish oil 300 g/mol.
# Test items were dissolved in 100% ethanol to form 100 mM concentration.
# Further dilutions were made in culture medium. 10% of test item in concentration×10 was added to each well according to study plan.
# Stock solution (100 mM) was prepared in 100% DMSO. […]
compound,measurement,value
"c1ccc2c(Cc3c[nH]c4ccccc34)c[nH]c2c1 [DIM, 3,3′-Diindolylmethane]",inhibition of NO production when tested separately,caused inhibition of NO production
